Experimental data from patent US20150307938A1, “METHOD TO IDENTIFY A NOVEL CLASS OF IMMUNOLOGIC ADJUVANTS” (Lancell, L.L.C., priority 2011, published 2015).

System: skin
Experiment: Affymetrix microarray of skin, DBP-4 hr and analogs vs. untreated; gene selection by log-2 fold change, Wilcoxon, Kendall tau (Tables 8, 9)
Assay type: in vivo, mouse
Settings: for Kendall: Kendall tau, expression vs. outcome

SMILES: CCCCOC(=O)c1ccccc1C(=O)OCCCC [DBP, dibutylphthalate]
- Wilcoxon (gene #557 Il10ra NM_008348_at, DBP-4 hr vs. untreated): No
- Kendall (gene #557 Il10ra NM_008348_at): Yes
- Wilcoxon (gene #558 Il7 NM_008371_at, DBP-4 hr vs. untreated): No
- Kendall (gene #558 Il7 NM_008371_at): Yes
- Wilcoxon (gene #559 Kif3a NM_008443_at, DBP-4 hr vs. untreated): No
- Kendall (gene #559 Kif3a NM_008443_at): Yes
- Wilcoxon (gene #560 Lmo2 NM_008505_at, DBP-4 hr vs. untreated): No
- Kendall (gene #560 Lmo2 NM_008505_at): Yes
- Wilcoxon (gene #561 Mcl1 NM_008562_at, DBP-4 hr vs. untreated): No
- Kendall (gene #561 Mcl1 NM_008562_at): Yes
- Wilcoxon (gene #562 Meox2 NM_008584_at, DBP-4 hr vs. untreated): No
- Kendall (gene #562 Meox2 NM_008584_at): Yes
- Wilcoxon (gene #563 Mtf1 NM_008636_at, DBP-4 hr vs. untreated): No
- Kendall (gene #563 Mtf1 NM_008636_at): Yes
- Wilcoxon (gene #564 Mut NM_008650_at, DBP-4 hr vs. untreated): No
- Kendall (gene #564 Mut NM_008650_at): Yes
- Wilcoxon (gene #565 Ppp1r15a NM_008654_at, DBP-4 hr vs. untreated): No
- Kendall (gene #565 Ppp1r15a NM_008654_at): Yes
- Wilcoxon (gene #566 Ncf4 NM_008677_at, DBP-4 hr vs. untreated): No
- Kendall (gene #566 Ncf4 NM_008677_at): Yes
- Wilcoxon (gene #567 Nos3 NM_008713_at, DBP-4 hr vs. untreated): No
- Kendall (gene #567 Nos3 NM_008713_at): Yes
- Wilcoxon (gene #568 Pigf NM_008838_at, DBP-4 hr vs. untreated): No
- Kendall (gene #568 Pigf NM_008838_at): Yes
- Wilcoxon (gene #569 Map2k3 NM_008928_at, DBP-4 hr vs. untreated): No
- Kendall (gene #569 Map2k3 NM_008928_at): Yes
- Wilcoxon (gene #570 Rad50 NM_009012_at, DBP-4 hr vs. untreated): No
- Kendall (gene #570 Rad50 NM_009012_at): Yes
- Wilcoxon (gene #571 Ralgds NM_009058_at, DBP-4 hr vs. untreated): No
- Kendall (gene #571 Ralgds NM_009058_at): Yes
- Wilcoxon (gene #572 Hltf NM_009210_at, DBP-4 hr vs. untreated): No
- Kendall (gene #572 Hltf NM_009210_at): Yes
- Wilcoxon (gene #573 Serpina3n NM_009252_at, DBP-4 hr vs. untreated): No
- Kendall (gene #573 Serpina3n NM_009252_at): Yes
- Wilcoxon (gene #574 Tnfaip1 NM_009395_at, DBP-4 hr vs. untreated): No
- Kendall (gene #574 Tnfaip1 NM_009395_at): Yes
- Wilcoxon (gene #575 Tuba4a NM_009447_at, DBP-4 hr vs. untreated): No
- Kendall (gene #575 Tuba4a NM_009447_at): Yes
- Wilcoxon (gene #576 Zfp101 NM_009542_at, DBP-4 hr vs. untreated): No
- Kendall (gene #576 Zfp101 NM_009542_at): Yes
- Wilcoxon (gene #577 Parp2 NM_009632_at, DBP-4 hr vs. untreated): No
- Kendall (gene #577 Parp2 NM_009632_at): Yes
- Wilcoxon (gene #578 Aldh2 NM_009656_at, DBP-4 hr vs. untreated): No
- Kendall (gene #578 Aldh2 NM_009656_at): Yes
- Wilcoxon (gene #579 Cebpb NM_009883_at, DBP-4 hr vs. untreated): No
- Kendall (gene #579 Cebpb NM_009883_at): Yes
- Wilcoxon (gene #580 Bcar1 NM_009954_at, DBP-4 hr vs. untreated): No
- Kendall (gene #580 Bcar1 NM_009954_at): Yes
- Wilcoxon (gene #581 Eci1 NM_010023_at, DBP-4 hr vs. untreated): No
- Kendall (gene #581 Eci1 NM_010023_at): Yes
- Wilcoxon (gene #582 Ddt NM_010027_at, DBP-4 hr vs. untreated): No
- Kendall (gene #582 Ddt NM_010027_at): Yes
- Wilcoxon (gene #583 Egr2 NM_010118_at, DBP-4 hr vs. untreated): No
- Kendall (gene #583 Egr2 NM_010118_at): Yes
- Wilcoxon (gene #584 F2r NM_010169_at, DBP-4 hr vs. untreated): No
- Kendall (gene #584 F2r NM_010169_at): Yes
- Wilcoxon: Abhd6 (gene Abhd6, NM_025341_at, DBP-4 hr vs. untreated): No
- Kendall: Abhd6 (gene Abhd6, NM_025341_at, gene expression vs. output): Yes
- Wilcoxon: Acad8 (gene Acad8, NM_025862_at, DBP-4 hr vs. untreated): No
- Kendall: Acad8 (gene Acad8, NM_025862_at, gene expression vs. output): Yes
- Wilcoxon: Ak2 (gene Ak2, NM_016895_at, DBP-4 hr vs. untreated): No
- Kendall: Ak2 (gene Ak2, NM_016895_at, gene expression vs. output): Yes
- Wilcoxon: Akr1e1 (gene Akr1e1, NM_018859_at, DBP-4 hr vs. untreated): No
- Kendall: Akr1e1 (gene Akr1e1, NM_018859_at, gene expression vs. output): Yes
- Wilcoxon: Avpr1a (gene Avpr1a, NM_016847_at, DBP-4 hr vs. untreated): No
- Kendall: Avpr1a (gene Avpr1a, NM_016847_at, gene expression vs. output): Yes
- Wilcoxon: B4galt1 (gene B4galt1, NM_022305_at, DBP-4 hr vs. untreated): No
- Kendall: B4galt1 (gene B4galt1, NM_022305_at, gene expression vs. output): Yes
- Wilcoxon: Bphl (gene Bphl, NM_026512_at, DBP-4 hr vs. untreated): No
- Kendall: Bphl (gene Bphl, NM_026512_at, gene expression vs. output): Yes
- Wilcoxon: Cdkl2 (gene Cdkl2, NM_016912_at, DBP-4 hr vs. untreated): No
- Kendall: Cdkl2 (gene Cdkl2, NM_016912_at, gene expression vs. output): Yes
- Wilcoxon: Cep70 (gene Cep70, NM_023873_at, DBP-4 hr vs. untreated): No
- Kendall: Cep70 (gene Cep70, NM_023873_at, gene expression vs. output): Yes
- Wilcoxon: Cirh1a (gene Cirh1a, NM_011574_at, DBP-4 hr vs. untreated): No
- Kendall: Cirh1a (gene Cirh1a, NM_011574_at, gene expression vs. output): Yes
- Wilcoxon: Clec14a (gene Clec14a, NM_025809_at, DBP-4 hr vs. untreated): No
- Kendall: Clec14a (gene Clec14a, NM_025809_at, gene expression vs. output): Yes
- Wilcoxon: Commd4 (gene Commd4, NM_025417_at, DBP-4 hr vs. untreated): No
- Kendall: Commd4 (gene Commd4, NM_025417_at, gene expression vs. output): Yes
- Wilcoxon: Cr1l (gene Cr1l, NM_013499_at, DBP-4 hr vs. untreated): No
- Kendall: Cr1l (gene Cr1l, NM_013499_at, gene expression vs. output): Yes
- Wilcoxon: Cyth1 (gene Cyth1, NM_011180_at, DBP-4 hr vs. untreated): No
- Kendall: Cyth1 (gene Cyth1, NM_011180_at, gene expression vs. output): Yes
- Wilcoxon: D16Ertd472e (gene D16Ertd472e, NM_025967_at, DBP-4 hr vs. untreated): No
- Kendall: D16Ertd472e (gene D16Ertd472e, NM_025967_at, gene expression vs. output): Yes
- Wilcoxon: Dcxr (gene Dcxr, NM_026428_at, DBP-4 hr vs. untreated): No
- Kendall: Dcxr (gene Dcxr, NM_026428_at, gene expression vs. output): Yes
- Wilcoxon: Dda1 (gene Dda1, NM_025600_at, DBP-4 hr vs. untreated): No
